{"source": "patent US20080206149A1", "about": "“METHOD, DYE AND MEDICAMENT FOR STAINING THE INTERNAL LIMITING MEMBRANE, EPIRETINAL MEMBRANE, THE VITREOUS AND/OR THE CAPSULE OF AN EYE” (LUDWIG-MAXIMILIANS-UNIVERSITAT MUNCHEN, priority 2005, published 2008)", "key": {"vitreous [1]": {"system": "vitreous", "experiment": "Staining of the vitreous during pars plana vitrectomy in porcine eyes", "format": "in vivo", "details": "graded by two examiners", "experimental": "All dyes were dissolved and diluted using balanced salt solution (BSS plus; Alcon Laboratories Inc., Fort Worth, Tex).\nExperiments were performed in animals (porcine eyes) and humans after approval of the local ethics committee had been obtained. All experiments were performed in compliance with the Declaration of Helsinki.\nOphthalmic surgery consisted of a standard pars plana vitrectomy. First, the transparent vitreous was removed as completely as possible. Then fluid air exchange was performed in order to avoid an uncontrolled distribution of the dye in the vitreous cavity. The dye was then injected into the air filled globe. After a period of one minute, the dye was washed out by irrigation with BSS. This was followed by an injection of the dye in concentrations from 0.2% to 2%. The staining of the vitreous was graded by two examiners who also performed the surgical procedures."}, "[2]": {"system": "vitreous and posterior hyaloid", "experiment": "Vitrectomy for idiopathic macular hole (Example 3)", "format": "in vivo, humans", "text": "(§1) This study was approved by the local ethics committee and Institutional Review Board (IRB) and written informed consent was obtained from all patients. Six consecutive patients with idiopathic macular hole, 3 males and 3 females with a mean age of 68 were included. Holes were graded as stage 2 (n=3), stage 3 (n=2) and stage 4 (n=1). The dye was also used in four patients with retinal detachments, 2 females and 2 males with a mean age of 57 years.\n(§2) Pre- and postoperatively, all patients underwent a complete clinical examination including measurement of best corrected visual acuity (VA), slit lamp examination, tonometry, and funduscopy using a 78 diopter lens (Volk Optical, Mentor, Ohio, USA). In macular hole patients, we additionally performed optical coherence tomography (OCT) (Stratus-OCT, Carl Zeiss Meditec, Jena, Germany), Goldmann perimetry, multifocal electroretinogram (ERG) and fundus photographs. Patients were seen one day before surgery and then in six weeks intervals. Postoperatively, ERG and Goldmann perimetry were performed at the six weeks follow-up visit and were not repeated if unremarkable.\nBromphenol blue powder was dissolved and diluted using BSS plus and sterilized using a 0.22 μm syringe filter. A final dye concentration of 0.2% was then injected into the eye. Vitrectomy first consisted of a core vitrectomy, followed by vitreous removal in the periphery in the area of the sclerotomy sites by indentation of the globe using a squint hook. Then an attempt was made to induce a posterior vitreous detachment by applying suction at the optic nerve head.\nThe dye was applied as follows: During pars plana vitrectomy for a macular hole a fluid air-exchange was performed prior to dye injection to achieve a maximum dye concentration on the retinal surface. Then, a few drops of the dye were injected over the posterior pole and the globe was gently moved to allow for an adequate dye distribution (FIG. 8A). This was followed by removal of excessive dye by irrigation after one minute. Then epiretinal tissue was removed if present and an attempt to peel the ILM using an end-gripping forceps was made in selected cases. Surgery was completed by fluid-air exchange and intraocular gas tamponade (hexafluoroethane (C2F6)) as previously described (Haritoglou C., Gandorfer A., Gass C. A., et al., “Indocyanine green-assisted peeling of the internal limiting membrane in macular hole surgery affects visual outcome: a clinicopathologic correlation”, Am J. Ophthalmol 2002; 134: 836-41). During surgery for retinal detachment the dye was applied after induction of a PVD and injection of approximately 1.5 ml heavy liquid (PFCL, perfluorocarbon, Fluoron GmbH, Neu-Ulm, Germany) and fluid-air exchange without removing PFCL (FIG. 8B). Using this approach, we obtained not only a higher dye concentration in the anterior segment of the eye as the dye can not be further diluted by PFCL, but we could also prevent an uncontrolled distribution especially in the subretinal space and excessive contact with the lens capsule, which may result in an unwanted staining effect. In addition we obtained a staining of the vitreous in the periphery as intended. C2F6 was used as an intraocular tamponade at the end of surgery. The staining characteristics were then evaluated by the surgeon."}, "vitreous [3]": {"system": "vitreous", "experiment": "Vitrectomy for retinal detachment (Example 3)", "format": "in vivo, humans", "text": "as §1\nas §2, with “unremarkable. […]” for “unremarkable.”\nThe dye was applied as follows: During pars plana vitrectomy for a macular hole a fluid air-exchange was performed prior to dye injection to achieve a maximum dye concentration on the retinal surface. […] The staining characteristics were then evaluated by the surgeon."}, "anterior lens capsule": {"system": "anterior lens capsule", "details": "previous experimental studies; cited from earlier work"}, "[4]": {"system": "anterior segment of the eye", "details": "animals, dye exposure of seven days, cited from earlier work"}, "ARPE-19 cells": {"system": "ARPE-19 cells", "experiment": "MTT assay, ARPE-19 cells", "details": "0.2% and 0.02% dye, 10 minutes exposure, compared to BSS plus control", "method": "ARPE-19 cells, a human retinal pigment epithelial cell line (42), were purchased from ATCC (Manassas, Va., USA) and grown in a 1:1 mixture of Dulbecco's modified Eagles medium and Ham's F12 medium (DMEM/Ham's F12, Biochrom), supplemented with 10% FCS (Biochrom).\nFor exposure of dyes RPE and ARPE-19 cells were kept for 24 hours under serum free conditions. After washing cells three times with PBS, cells were incubated for 10 minutes with 300 μl of BSS plus containing 0.2% or 0.02% of dye, respectively. […] The dye was then removed by carefully rinsing cells with BSS plus three times. After 24 hours incubation with serum containing media the cell proliferation assay was performed. RPE cells (p3-6) were seeded in 24-well plates and exposed to two concentrations (0.2 and 0.02%) of dyes. BSS plus alone and H2O2, (200 μL/mL) served as controls.\nThe tetrazolium dye-reduction assay (MTT; 3-[4,5-dimethylthiazol-2-yl]-2,5-diphenyl tetrazolium bromide;) was used to determine cell survival rate. […] The medium was removed, cells were washed with PBS, and 1000 μL/well MTT solution (1.5 mL MTT stock, 2 mg/mL in PBS, plus 28.5 mL DMEM) was added. RPE cells were incubated at 37° C. for 1 hour. The formazan crystals that formed were dissolved by the addition of dimethyl sulfoxide (DMSO; 1000 μL/well). Absorption was measured by a scanning multiwell spectrophotometer at 550 nm (Molecular Probes, Garching, Germany). […] Experiments were performed in triplicate and repeated three times. RPE and ARPE-19 cells of the same passage incubated with BSS without addition of dyes served as control. Statistical comparison between dye concentrations was performed with SPSS (Mann-Whitney-U-Test).\nThe MTT test as performed in this study is a well established test for the assessment of cell viability, but relies on calorimetric measurement of a blue (550 nm) formazan reaction product. This color overlaps with the absorption spectra of some of the dyes tested. […] Cell monolayers were treated with dyes as per the experiments described above but absorbance readings were performed without prior application of MTT. […]"}}, "data": [{"compound": "O=S1(=O)OC(c2cc(Br)c(O)c(Br)c2)(c2cc(Br)c(O)c(Br)c2)c2ccccc21", "note": "[Bromophenol blue, Bromophenole blue]", "values": [{"measurement": "staining effect of the vitreous", "setting": "vitreous [1]; dye concentration 0.2%", "result": "good"}, {"measurement": "staining effect of the vitreous", "setting": "vitreous [1]; dye concentration 2.0%", "result": "strong"}, {"measurement": "staining of remnant vitreous in the periphery at the vitreous base", "setting": "[2]; 0.2%, macular hole surgery", "result": "could be seen in all cases"}, {"measurement": "staining of the retinal surface or the ILM", "setting": "[2]; 0.2%, three cases with complete PVD and no epiretinal membrane", "result": "no staining of the retinal surface or the ILM"}, {"measurement": "amplitudes in postoperative ERG examinations", "setting": "[2]; in vivo", "result": "no affection of the amplitudes"}, {"measurement": "loss of VA", "setting": "[2]; in vivo", "result": "No loss of VA"}, {"measurement": "peripheral visual field defects indicating dye related toxicity", "setting": "[2]; in vivo", "result": "nor did we observe peripheral visual field defects"}, {"measurement": "staining of the adherent posterior hyaloid membrane", "setting": "[2]; macular hole patients with incomplete PVD", "result": "very useful"}, {"measurement": "VA postoperatively", "setting": "[2]; overall patients", "result": "20/40"}, {"measurement": "VA preoperatively", "setting": "[2]; overall patients", "result": "20/100"}, {"measurement": "macular hole closure", "setting": "[2]; second operation necessary in one case", "result": "All macular holes could be closed successfully"}, {"measurement": "identification of peripheral vitreous remnants at the vitreous base and retinal breaks", "setting": "vitreous [3]; 0.2%, injected onto PFCL bubble", "result": "helped to identify peripheral remnants of vitreous"}, {"measurement": "reattachment of the retina", "setting": "vitreous [3]; in vivo", "result": "could be achieved in all cases"}, {"measurement": "safety for intraocular application", "setting": "anterior lens capsule", "result": "safe for intraocular application"}, {"measurement": "staining of the anterior lens capsule", "setting": "anterior lens capsule", "result": "strongly stain"}, {"measurement": "clinical examinations: signs of inflammatory responses or toxicity in the anterior segment", "setting": "[4]; also higher dye concentrations", "result": "did not reveal any signs of inflammatory responses or toxicity"}, {"measurement": "histological abnormalities following enucleation", "setting": "[4]", "result": "no histological abnormalities"}, {"measurement": "cell survival of ARPE-19 cells (MTT)", "setting": "ARPE-19 cells", "result": "no significant impact on cell survival"}]}]}
